In PMC7901646, “Pyrrolo[2′,3′:3,4]cyclohepta[1,2-d][1,2]oxazoles, a New Class of Antimitotic Agents Active against Multiple Malignant Cell Types” (Journal of Medicinal Chemistry, 2020):

How the values were obtained:
Assay type in all cases: cell-based
CAKI-1 = test: NCI-60 screen; settings: Homo sapiens, Renal Cancer
Description: (§1) All the synthesized compounds 51–76 were tested at a 10^–5 M concentration for their antitumor activity on the full NCI-60 panel comprising cancer cell lines derived from nine human cancer cell types (leukemia, non-small-cell lung, colon, central nervous system, melanoma, ovarian, renal, prostate, and breast).[50]

COLO 205 = test: NCI-60 screen; settings: Homo sapiens, Colon Cancer
Description: as §1

HCT-116 = test: NCI-60 screen; settings: Homo sapiens, Colon Cancer
Description: as §1

HCT-15 = test: NCI-60 screen; settings: Homo sapiens, Colon Cancer
Description: as §1

HL-60(TB) = test: NCI-60 screen; settings: Homo sapiens, Leukemia
Description: as §1

HT29 = test: NCI-60 screen; settings: Homo sapiens, HT-29; Colon Cancer
Description: as §1

IGROV1 = test: NCI-60 screen; settings: Homo sapiens, IGROV-1; Ovarian Cancer
Description: as §1

M14 = test: NCI-60 screen; settings: Homo sapiens, Melanoma
Description: as §1

MCF7 = test: NCI-60 screen; settings: Homo sapiens, Breast Cancer
Description: as §1

MDA-MB-231/ATCC = test: NCI-60 screen; settings: Homo sapiens, Breast Cancer
Description: as §1

MDA-MB-435 = test: NCI-60 screen; settings: Homo sapiens, Melanoma
Description: as §1

MOLT-4 = test: NCI-60 screen; settings: Homo sapiens, Leukemia
Description: as §1

NCI-H460 = test: NCI-60 screen; settings: Homo sapiens, Non-Small-Cell Lung Cancer
Description: as §1

NCI/ADR-RES = test: NCI-60 screen; settings: Homo sapiens, Ovarian Cancer
Description: as §1

PC-3 = test: NCI-60 screen; settings: Homo sapiens, Prostate Cancer
Description: as §1

RPMI-8226 = test: NCI-60 screen; settings: Homo sapiens, Leukemia
Description: as §1

SF-268 = test: NCI-60 screen; settings: Homo sapiens, CNS Cancer
Description: as §1

SF-295 = test: NCI-60 screen; settings: Homo sapiens, CNS Cancer
Description: as §1

SK-OV-3 = test: NCI-60 screen; settings: Homo sapiens, Ovarian Cancer
Description: as §1

SNB-19 = test: NCI-60 screen; settings: Homo sapiens, CNS Cancer
Description: as §1

SR = test: NCI-60 screen; settings: Homo sapiens, Leukemia
Description: as §1

SW-620 = test: NCI-60 screen; settings: Homo sapiens, Colon Cancer
Description: as §1

TK-10 = test: NCI-60 screen; settings: Homo sapiens, Renal Cancer
Description: as §1

UACC-62 = test: NCI-60 screen; settings: Homo sapiens, Melanoma
Description: as §1

KM12 = test: NCI-60 screen; settings: Homo sapiens, Colon Cancer
Excerpt: (§2) on the full NCI-60 panel comprising cancer cell lines derived from nine human cancer cell types (leukemia, non-small-cell lung, colon, central nervous system, melanoma, ovarian, renal, prostate, and breast).[50]

LOX IMVI = test: NCI-60 screen; settings: Homo sapiens, Melanoma
Excerpt: as §2

NCI-H522 = test: NCI-60 screen; settings: Homo sapiens, Non-Small-Cell Lung Cancer
Excerpt: as §2

OVCAR-3 = test: NCI-60 screen; settings: Homo sapiens, Ovarian Cancer
Excerpt: as §2

HBL1 (ABC DLBCL) = test: MTT cell proliferation, lymphoma; settings: Homo sapiens, 72 h; for activity at 1 µM: of untreated cells, read-out: Proliferating cells (%); for IC50: MTT
Description: (§3) All compounds were further tested at the concentration of 1 μM on four cell lines derived from distinct lymphoma histotypes, plus two with secondary resistance to the PI3Kδ inhibitor idelalisib[51] or to the BTK inhibitor ibrutinib.[52] […] For comparison, the same experiments were conducted using compound 3, but the response to it was minimal, and thus it was not considered further.
(§4) Established human cell lines derived from germinal center B-cell (GCB) (SU-DHL-10), activated B-cell (ABC) (HBL1) diffuse large B-cell lymphoma (DLBCL), mantle cell lymphoma (MCL) (MINO), splenic marginal zone lymphoma (SMZL) (parental VL51, VL51 idelalisib resistant clone, VL51 ibrutinib resistant clone) were cultured in culture RPMI-1640 media supplemented with fetal bovine serum (10%), penicillin–streptomycin–neomycin (∼5,000 units of penicillin, 5 mg of streptomycinm and 10 mg of neomycin/mL, Sigma), and L-glutamine (1%). Vincristine sulfate was purchased from Sigma-Aldrich. Cell line identities were confirmed by CellCheck test (IDEXX, BioResearch, Ludwigsburg, Germany). All compounds were dissolved in dimethyl sulfoxide to obtain a stock concentration of 10 mM.
(§5) The antiproliferative activity of all compounds was assessed by using the 3-(4.5-dimethylthiazolyl-2)-2,5-diphenyltetrazolium bromide (MTT) test. Cells were seeded in 96-well plates (nontissue culture treated) at a density of 1 × 10^5 cells/mL and treated with a single concentration of 1 μM for 72 h. […] In this case, cells were treated in triplicate with serially diluted compounds in the appropriate tissue culture medium at a range of 40–10 000 nM. Cells were incubated for 72 h at 37 °C, 5% CO2. Wells containing medium only were included on each plate and served as blanks for absorbance readings. MTT (Sigma, Buchs, Switzerland) was prepared as a 5 mg/mL stock solution in phosphate buffered saline (PBS) and filter-sterilized. MTT solution (22 μL) was added to each well, and tissue culture plates were incubated at 37 °C for 4 h. Cells were then lysed with 25% sodium dodecyl sulfate lysis buffer, and absorbance was read at 570 nm using a Beckman Coulter-AD340 plate reader.

MINO (MCL) = test: MTT cell proliferation, lymphoma; settings: Homo sapiens, 72 h; for activity at 1 µM: of untreated cells, read-out: Proliferating cells (%); for IC50: MTT
Description: as §3, §4, §5

SU-DHL-10 (GCB DLBCL) = test: MTT cell proliferation, lymphoma; settings: Homo sapiens, SU-DHL10, 72 h; for activity at 1 µM: of untreated cells, read-out: Proliferating cells (%); for IC50: MTT
Description: as §3, §4, §5

VL51 (MZL) = test: MTT cell proliferation, lymphoma; settings: Homo sapiens, 72 h; for activity at 1 µM: of untreated cells, read-out: Proliferating cells (%); for IC50: MTT
Description: as §3, §4, §5

VL51 ibrutinib-resistant = test: MTT cell proliferation, lymphoma; settings: Homo sapiens, 72 h, of untreated cells, read-out: Proliferating cells (%)
Description: as §3, §4, §5

[1] = test system: VL51 idelalisib-resistant; test: MTT cell proliferation, lymphoma; settings: Homo sapiens, 72 h, of untreated cells, read-out: Proliferating cells (%)
Description: as §3, §4, §5

| SMILES | GI50 (CAKI-1) [nM] | GI50 (COLO 205) [nM] | GI50 (HCT-116) [nM] | GI50 (HCT-15) [nM] | GI50 (HL-60(TB)) [nM] | GI50 (HT29) [nM] | GI50 (IGROV1) [nM] | GI50 (M14) [nM] | GI50 (MCF7) [nM] | GI50 (MDA-MB-231/ATCC) [nM] | GI50 (MDA-MB-435) [nM] | GI50 (MOLT-4) [nM] | GI50 (NCI-H460) [nM] | GI50 (NCI/ADR-RES) [nM] | GI50 (PC-3) [nM] | GI50 (RPMI-8226) [nM] | GI50 (SF-268) [nM] | GI50 (SF-295) [nM] | GI50 (SK-OV-3) [nM] | GI50 (SNB-19) [nM] | further results |
| --- | --- | --- | --- | --- | --- | --- | --- | --- | --- | --- | --- | --- | --- | --- | --- | --- | --- | --- | --- | --- | --- |
| CCOC(=O)c1cc2c(n1Cc1cc(OC)cc(OC)c1)-c1oncc1CCC2 [Compound 66, Ethyl 9-(3,5-Dimethoxybenzyl)-4,5,6,9-tetrahydropyrrolo[2′,3′:3,4]cyclohepta[1,2-d][1,2]oxazole-8-carboxylate] | 50 | 30 | 40 | 40 | 30 | 30 | 60 | 50 | 30 | 240 | 10 | 260 | 40 | 30 | 40 | 50 | 50 | 30 | 50 | 150 | GI50 (SR): 30 nM; GI50 (SW-620): 40 nM; GI50 (TK-10): > 100000 nM; GI50 (UACC-62): 70 nM; GI50 (KM12): 30 nM; GI50 (LOX IMVI): 50 nM; GI50 (NCI-H522): 20 nM; GI50 (OVCAR-3): 20 nM; activity at 1 µM (HBL1 (ABC DLBCL)): 24.1%; IC50 (HBL1 (ABC DLBCL)): 300 nM; activity at 1 µM (MINO (MCL)): 9.1%; IC50 (MINO (MCL)): 250 nM; activity at 1 µM (SU-DHL-10 (GCB DLBCL)): 11.3%; IC50 (SU-DHL-10 (GCB DLBCL)): 250 nM; activity at 1 µM (VL51 (MZL)): 40.1%; IC50 (VL51 (MZL)): 250 nM; activity at 1 µM (VL51 ibrutinib-resistant): 40.5%; activity at 1 µM [1]: 34.3% |
| CCOC(=O)c1cc2c(n1Cc1cccc(OC)c1)-c1oncc1CCC2 [Compound 63, Ethyl 9-(3-Methoxybenzyl)-4,5,6,9-tetrahydropyrrolo[2′,3′:3,4]cyclohepta[1,2-d][1,2]oxazole-8-carboxylate] | 2310 | 580 | 470 | 450 | 530 | 360 | 1160 | 540 | 370 | 1840 | 150 | 2300 | 3530 | 430 | 2350 | 1890 | 6710 | 620 | 2830 | 8230 | GI50 (SR): 280 nM; GI50 (SW-620): 480 nM; GI50 (TK-10): 11200 nM; GI50 (UACC-62): 510 nM; GI50 (KM12): 460 nM; GI50 (LOX IMVI): 1750 nM; GI50 (NCI-H522): 230 nM; GI50 (OVCAR-3): 300 nM; activity at 1 µM (HBL1 (ABC DLBCL)): 117%; IC50 (HBL1 (ABC DLBCL)): > 5000 nM; activity at 1 µM (MINO (MCL)): 86.3%; IC50 (MINO (MCL)): 2600 nM; activity at 1 µM (SU-DHL-10 (GCB DLBCL)): 51.5%; IC50 (SU-DHL-10 (GCB DLBCL)): 3000 nM; activity at 1 µM (VL51 (MZL)): 66.7%; IC50 (VL51 (MZL)): 2300 nM; activity at 1 µM (VL51 ibrutinib-resistant): 64.9%; activity at 1 µM [1]: 62.3% |
| CCOC(=O)c1c(Cl)c2c(n1Cc1cc(OC)cc(OC)c1)-c1oncc1CCC2 [Compound 75, Ethyl 7-Chloro-9-(3,5-dimethoxybenzyl)-4,5,6,9-tetrahydropyrrolo[2′,3′:3,4]cyclohepta[1,2-d][1,2]oxazole-8-carboxylate] | 280 | 170 | 430 | 370 | 310 | 270 | 340 | 260 | 100 | 840 | 30 | 580 | 350 | 200 | 290 | 390 | 1910 | 60 | 240 | 520 | GI50 (SR): 70 nM; GI50 (SW-620): 320 nM; GI50 (TK-10): 10300 nM; GI50 (UACC-62): 110 nM; GI50 (KM12): 320 nM; GI50 (LOX IMVI): 880 nM; GI50 (NCI-H522): 30 nM; GI50 (OVCAR-3): 190 nM; activity at 1 µM (HBL1 (ABC DLBCL)): 20.7%; IC50 (HBL1 (ABC DLBCL)): 900 nM; activity at 1 µM (MINO (MCL)): 9.5%; IC50 (MINO (MCL)): 900 nM; activity at 1 µM (SU-DHL-10 (GCB DLBCL)): 11.5%; IC50 (SU-DHL-10 (GCB DLBCL)): 900 nM; activity at 1 µM (VL51 (MZL)): 38.1%; IC50 (VL51 (MZL)): 800 nM; activity at 1 µM (VL51 ibrutinib-resistant): 40.8%; activity at 1 µM [1]: 40.2% |
